# Measured values from US10758517B2, “mPGES-1 inhibitor for the treatment of osteoarthritis pain” (Glenmark Pharmaceuticals S.A., priority 2017, dated 2020).
# Marks after values point to notes of the source that are not given here.
# System: LPS-induced PGE2 release
# Assay: Ex vivo LPS-induced PGE2 release in whole blood, single dose crossover versus celecoxib (Example 1, Part 3)
# Design: species or system human
# Conditions: single oral dose 400 mg, fasted healthy subjects
# Description: Part 2 was a single-dose, double-blind study in a single cohort of elderly subjects. Part 3 was an open-label, randomized, 2-period, single-dose, crossover study to compare effects of the highest tolerated Compound I dose and celecoxib on prostanoid metabolism in healthy adult subjects.
# In Part 3, Compound I was administered at a dose of 1000 mg after fasting. All subjects received Compound I and all subjects received 400 mg celecoxib in a cross-over study design.
# In Parts 1a and 3, whole blood samples were incubated and analyzed for lipopolysaccharide (LPS)-induced prostaglandin PGE2 release. In Part 3, urine samples were collected for analysis of prostanoid metabolites.
# Summary statistics were presented for the PK, pharmacodynamic (PD) and safety data, as appropriate. PK parameters following single oral doses of Compound I were determined from the plasma concentrations of Compound I using non-compartmental procedures in WinNonlin Dose proportionality was assessed using a power model, with tmax analyzed using the Kruskal-Wallis test. The effect of food on PK was assessed at the 100 and 250 mg doses using a mixed effects model. The effect of age on PK was assessed for elderly (>65 years) versus non-elderly (<65 years) at the 250 mg dose level in Parts 1a and 2, using an analysis of variance (ANOVA) with age as a fixed effect. For PD analyses, percent decrease of ex vivo LPS-induced PGE2 release was calculated. For Part 3, urinary excretion of prostanoid metabolites was also evaluated. The data are presented as absolute, as well as creatinine normalized urinary biomarker amounts, along percent change from baseline over a definite time interval. The percent change from baseline in urinary biomarkers was assessed using an analysis of covariance (ANCOVA) model
# Percent change in ex vivo LPS-induced PGE2 release in whole blood is the pharmacodynamic (PD) biomarker. The PGE2 levels in whole blood were estimated using the homogeneous time-resolved fluorescence method.
# Concentrations below the limit of quantification were treated as ½ the lower limit of quantification for calculation.
# Time points where unstimulated prostaglandin E2 (PGE2) concentration was more than 3 times greater than the mean unstimulated PGE2 and equal to or greater than ½ baseline value for an individual subject were not included in the calculation of % inhibition.
smiles,measurement,setting,value
"Cc1ccc(-c2cc(C(F)(F)F)nn2-c2ccc(S(N)(=O)=O)cc2)cc1 [Celecoxib, celecoxib, reference compound]","EAUC0-24 h, LS mean",,1421 % · h
same,"ETmax (time to reach maximum effect), Median",,6.00 h
same,"Epeak (maximum % inhibition), LS mean",,89.1%
same,"EAUC0-336 h, LS mean",N = 18,−10159^a % · h
